Data from patent US20240327411A1, “SIRT6 ACTIVATORS” (The Board of Regents of The University of Texas System, priority 2022, published 2024).

What was measured:
[1] = biological target: T1, Sirt1 (Homo sapiens, UniProt Q96EB6); assay: Sirt1 deacetylation activity assay kit; settings: time course, FIG. 3
T1 sequence (Q96EB6 1-747): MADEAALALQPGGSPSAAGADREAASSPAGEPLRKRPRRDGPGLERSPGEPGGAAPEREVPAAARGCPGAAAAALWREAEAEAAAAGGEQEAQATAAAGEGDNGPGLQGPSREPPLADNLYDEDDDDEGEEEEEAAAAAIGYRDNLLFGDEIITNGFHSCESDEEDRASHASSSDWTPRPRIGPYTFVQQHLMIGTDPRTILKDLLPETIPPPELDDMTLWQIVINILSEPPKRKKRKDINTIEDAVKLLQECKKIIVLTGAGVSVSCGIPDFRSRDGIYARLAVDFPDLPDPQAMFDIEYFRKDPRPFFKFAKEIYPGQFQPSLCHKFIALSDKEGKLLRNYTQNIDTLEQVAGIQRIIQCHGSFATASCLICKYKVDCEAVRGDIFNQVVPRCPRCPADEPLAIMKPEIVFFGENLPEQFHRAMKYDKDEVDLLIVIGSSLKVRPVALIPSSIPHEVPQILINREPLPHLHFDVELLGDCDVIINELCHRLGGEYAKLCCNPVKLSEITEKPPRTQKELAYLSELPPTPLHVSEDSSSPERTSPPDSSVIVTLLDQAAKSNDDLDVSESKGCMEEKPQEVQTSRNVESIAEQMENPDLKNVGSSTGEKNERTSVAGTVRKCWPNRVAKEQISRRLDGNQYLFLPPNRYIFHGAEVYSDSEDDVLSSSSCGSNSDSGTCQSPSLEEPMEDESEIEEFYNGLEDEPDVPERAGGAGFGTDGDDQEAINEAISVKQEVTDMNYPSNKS
Method: (§1) Sirt6/Sirt1/Sirt2/Sirt3 activity was tested by Activity Assay Kits (Abcam) according to the manufacturer's instruction with minor modification. […] All experiments were conducted at room temperature.

[2] = system: A549-hACE2 cells; assay: Cell viability assay in A549-hACE2 cells; settings: 50 μM, 48 h
[3] = system: retinal precursor cells (R28); assay: MTT cell viability assay in R28 cells; assay type: cell-based; settings: 30 μM, 24 hours
Method: FIGS. 5A-5C: FIGS. 5A-5C display the deacetylation effect and cytotoxicity of selected compounds. […] Nucleosomes extracted from HEK293T cells were incubated with 100 μM of selected compounds or Vehicle at 30° C. for 60 minutes. Acetylated H3K9 and total H3 were detected by Western blot. The level of acetylated H3K9 was quantified by Image Lab software. FIGS. 5B and 5C show the cell viability which was assessed by MTT assay. R28 cells were treated with 30 μM or 100 μM compounds for 24 hours. Data were presented as mean±SEM. The experiment was repeated at least three times. ***p<0.001; ****p<0.0001.
R28 cells were seeded in 96 well plates at a density of 1×10^4/well overnight, then treated with compounds for 24 h. MTT (MilliporeSigma) was added to cells (20 μL/well) and incubated for 3.5 h. After medium was removed, 100 μL dimethyl sulfoxide (DMSO) was added into each well. Absorbance was measured at 540 nm using a microplate reader.

[4] = biological target: T2, Sirt6 (Homo sapiens, UniProt Q8N6T7); assay: Nucleosome test: Sirt6-dependent H3K9 deacetylation of nucleosomes from HEK293T cells, Western blot; assay type: biochemical; settings: 100 μM, 30° C., 60 minutes
T2 sequence (Q8N6T7 whole entry): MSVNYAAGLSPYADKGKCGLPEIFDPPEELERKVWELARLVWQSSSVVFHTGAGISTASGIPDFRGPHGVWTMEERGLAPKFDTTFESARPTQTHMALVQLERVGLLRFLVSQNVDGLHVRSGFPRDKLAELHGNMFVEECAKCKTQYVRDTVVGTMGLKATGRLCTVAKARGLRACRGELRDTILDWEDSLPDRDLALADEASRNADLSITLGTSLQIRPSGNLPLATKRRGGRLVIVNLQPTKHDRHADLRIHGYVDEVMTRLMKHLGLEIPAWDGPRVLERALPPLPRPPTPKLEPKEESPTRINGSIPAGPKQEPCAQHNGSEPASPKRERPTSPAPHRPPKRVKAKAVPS
Method: . Nucleosomes extracted from HEK293T cells were incubated with 100 μM of selected compounds or Vehicle at 30° C. for 60 minutes. Acetylated H3K9 and total H3 were detected by Western blot. The level of acetylated H3K9 was quantified by Image Lab software. FIGS. 5B and 5C show the cell viability which was assessed by MTT assay. R28 cells were treated with 30 μM or 100 μM compounds for 24 hours. Data were presented as mean±SEM. The experiment was repeated at least three times. ***p<0.001; ****p<0.0001.
Next, effects of selected compounds were explored for Sirt6-dependent deacetylation of complete nucleosomes extracted from human embryonic kidney (HEK) 293T cells, as nucleosomes represent more physiologically relevant substrates. […]. Briefly, HEK 293T cells in 100 mm dish were lysed with lysis buffer supplemented with PIC and PMSF for 30 min. After centrifugation for 10 min at 5000 rpm at 4° C., supernatant was removed and nuclei pellet was resuspended with digestion buffer supplemented with PIC and PMSF for 5 min at 37° C. Working enzymatic sharing cocktail was added to digest the chromatin, and EDTA was added after incubation to stop the digestion. Digested nucleosome was obtained in the supernatant after centrifugation for 10 min at 15000 rpm at 4° C. and the concentration was quantified by measuring the absorbance at […]. 20 μg nucleosome was incubated in solution (1× buffer, 0.5 μL recombinant Sirt6 and […] NAD, from SIRT6 ACTIVITY ASSAY KIT) for 60 min. To test the effects of the compounds on Sirt6 activity, corresponding compound or DMSO control was added before incubation. The reaction mixture was analyzed by Western blot.
Proteins were extracted from cells with PIERCE RIPA BUFFER (89901, ThermoFisher Scientific), and protein concentration was determined using PIERCE BCA PROTEIN ASSAY KIT (23225, ThermoFisher Scientific). Equal amounts of protein were loaded and separated by SDS-PAGE gel. Next, separated proteins were transferred onto Nitrocellulose Blotting Membranes (A29457237, GE Healthcare Life science), and then the membranes were blocked by 5% non-fat dry milk. After incubation with corresponding primary antibodies against H3K9ac, H3 and Sirt6 at a 1:1000 dilution, or α-tubulin at a 1:5000 dilution, goat anti-mouse or goat anti-rabbit secondary antibodies at a 1:5000 dilution were applied. Finally, membranes were incubated with enhanced chemiluminescent and protein bands were detected by CHEMIDOC imaging system (Bio-Rad). Image-Lab software was used to analyze the intensities of the protein bands.

[5] = system: SARS-CoV-2; assay: microbe, parasite or virus in culture; assay type: cell-based
[6] = biological target: T2, Sirt6; assay: Sirt6-dependent peptide deacetylation, FLUOR DE LYS / Sirt6 fluorometric activity kit; assay type: biochemical; settings: mean ± SD, at least two independent experiments
Method: as §1

[7] = biological target: T3, Sirt3 (Homo sapiens, UniProt Q9NTG7); assay: Sirt3 deacetylation activity assay kit; settings: time course, FIG. 3
T3 sequence (Q9NTG7 1-399): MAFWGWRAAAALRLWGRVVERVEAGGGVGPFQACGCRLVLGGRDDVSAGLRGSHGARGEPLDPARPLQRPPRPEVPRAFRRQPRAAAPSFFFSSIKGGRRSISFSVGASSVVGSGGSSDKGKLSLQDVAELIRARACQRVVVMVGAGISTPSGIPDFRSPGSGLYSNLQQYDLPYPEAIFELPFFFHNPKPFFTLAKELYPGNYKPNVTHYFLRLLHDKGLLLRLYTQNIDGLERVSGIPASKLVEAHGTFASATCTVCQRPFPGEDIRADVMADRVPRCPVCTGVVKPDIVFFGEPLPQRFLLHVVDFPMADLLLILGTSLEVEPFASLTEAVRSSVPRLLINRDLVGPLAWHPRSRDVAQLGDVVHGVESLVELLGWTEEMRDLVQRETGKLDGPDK
Method: as §1

[8] = system: BV2 cells; assay: LPS-induced inflammatory gene mRNA expression in BV2 cells, q-PCR; assay type: cell-based, murine; settings: for LPS-induced expression of IL-1β, IL-6, MCP-1, and TNFα: 30 μM pretreatment 30 minutes
[9] = system: human hepatocellular carcinoma (HCC) cells; settings: literature, cited from earlier work
[10] = system: HCC tumor; settings: mouse xenograft models; literature; cited from earlier work
[11] = system: CRC tumor; settings: cell line- and patient-derived xenografts, APCmin/+ spontaneous CRC model; literature; cited from earlier work
[12] = system: colorectal cancer (CRC) cell lines; settings: various CRC cell lines; literature; cited from earlier work
[13] = in mice; literature; cited from earlier work
[14] = system: Sirt1, 2, and 3; settings: literature; cited from earlier work
[15] = biological target: T2, Sirt6; settings: literature value; cited from earlier work
[16] = BV2 cells, 100 ng/mL LPS 6 hours, mRNA

CN(C)CCN1CCN(c2ncccc2C2Nc3ccccc3-n3cccc32)CC1 (stereo not shown) [Compound 38, 2-(4-(3-(4,5-Dihydropyrrolo[1,2-a]quinoxalin-4-yl)pyridin-2-yl)piperazin-1-yl)-N,N-dimethylethan-1-amine]
effect on Sirt1 deacetylation [1]: no significant effects | cytotoxicity at the highest tested concentration [2]: none of these compounds exhibited significant cytotoxicity | toxicity on retinal precursor cells (R28) [3]: no obvious toxicity | acetylation of H3K9 in the nucleosome test [4]: significantly decreased the acetylation of H3K9 | potency in inhibiting SARS-CoV-2 infection (in words) [5]: micromolar potency | EC50 ([5]; Severe acute respiratory syndrome coronavirus 2, 48 h, read-out: EC50, SARS-CoV-2 infection): 9.3 µM | Activation Fold 30 μM ([6]; compound at 30 μM): 3.83 ± 0.46 fold | Activation Fold 100 μM ([6]; compound at 100 μM): 7.38 ± 0.6 fold | effect on Sirt3 deacetylation [7]: no significant effects | LPS-induced expression of IL-1β, IL-6, MCP-1, and TNFα [8, 16]: strongly inhibited | ICAM-1 induction ([8]; BV2 cells, 30 μM, 100 ng/mL LPS 6 hours, mRNA): slight inhibition | LPS-induced proinflammatory cytokine/chemokine production ([8]; summary statement): strongly repressed

COC(=O)c1cc(NS(=O)(=O)c2cc(Cl)cc(Cl)c2)ccc1S(=O)(=O)Nc1cc(Br)c(F)cc1C [MDL-800]
H3K9 and H3K56 deacetylation ([9]; human HCC cells, dose-dependently): significantly promoted | proliferation of HCC cells [9]: inhibited their proliferation | HCC tumor growth [10]: suppressed HCC tumor growth

Cc1cc(F)c(Br)cc1NS(=O)(=O)c1ccc(NS(=O)(=O)c2cc(Cl)cc(Cl)c2)cc1CN1CCOC[C@H]1C [MDL-811]
anti-tumor efficacy [11]: in vivo anti-tumor efficacy | antiproliferative effects [12]: broad antiproliferative effects | bioavailability (F) [13]: 92.96%

c1cncc(C2Nc3ccccc3-n3cccc32)c1 (stereo not shown) [UBCS039, reference compound]
effects on basal Sirt1, 2, and 3 deacetylation activities [14]: no obvious effects | maximum activation (Emax) of Sirt6 deacetylation [15]: ~2 fold | potency in inhibiting SARS-CoV-2 infection (in words) [5]: micromolar potency | LPS-induced expression of IL-1β, IL-6, MCP-1, and TNFα [8, 16]: strongly inhibited
